Assay results from patent EP0880540B1, “17-BETA-CYCLOPROPYL(AMINO/OXY) 4-AZA STEROIDS AS ACTIVE INHIBITORS OF TESTOSTERONE 5-ALPHA-REDUCTASE AND C17-20-LYASE” (Aventis Pharmaceuticals Inc., priority 1996, dated 1997).

Target: T1, nude mouse testicular C17,20 lyase (Mus musculus, UniProt P27786)
T1 construct: from tissue; host or cells: testes of male athymic nude mice (Harlan Laboratories), 10,000 x g supernatant of homogenate
T1 sequence (P27786 1-507): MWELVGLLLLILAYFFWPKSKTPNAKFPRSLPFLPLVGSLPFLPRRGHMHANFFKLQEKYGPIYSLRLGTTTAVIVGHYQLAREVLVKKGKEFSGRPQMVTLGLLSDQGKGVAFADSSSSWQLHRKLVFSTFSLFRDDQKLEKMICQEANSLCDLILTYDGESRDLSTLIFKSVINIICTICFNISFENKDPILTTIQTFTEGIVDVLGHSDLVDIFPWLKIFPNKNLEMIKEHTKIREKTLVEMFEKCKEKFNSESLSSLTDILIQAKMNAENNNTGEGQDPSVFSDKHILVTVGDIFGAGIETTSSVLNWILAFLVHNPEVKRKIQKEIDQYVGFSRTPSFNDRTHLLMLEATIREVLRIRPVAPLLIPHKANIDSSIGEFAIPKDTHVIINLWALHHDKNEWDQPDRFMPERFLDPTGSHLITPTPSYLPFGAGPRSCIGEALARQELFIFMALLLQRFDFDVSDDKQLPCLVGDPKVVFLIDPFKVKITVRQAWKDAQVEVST
Test: Ex vivo inhibition of C17,20 lyase in nude mouse testes after oral dosing
Design: species or system male athymic nude mice
Conditions: 4 hours after oral dosing
Procedure: Ex vivo inhibition of C17,20 lyase: MDL 103,432 was tested for ex vivo inhibition of rat and nude mouse testes lyase. Male Copenhagen rats and male athymic nude mice obtained from Harlan Laboratories, Indianapolis, IN, were divided into groups of 5 to 6 based on weight. Average weight was 100-140 g each for rats and 18-35 g each for the mice. Prior to oral dosing, animals were fasted overnight. Test compound was prepared by micronization in a lecithin vehicle using a glass Teflon® pestle-type homogenizer. The compound was brought to volume using lecithin so as to administer 0.5 mL per 100 g animal. Rats and nude mice were given vehicle only (controls) or vehicle plus test compounds peros. Rats were also given the compound in lecithin or lecithin alone subcutaneously. Each group consisted of 5-6 animals. At a specified time after dosing, the animals were anesthetized with CO2 gas, sacrificed by cervical dislocation, testes were excised, capsules were removed, and the tissue was weighed. […] Assays were terminated, extracted and analyzed as described above except that carrier steroids were 17α-hydroxyprogesterone, androst-4-ene-dione, and testosterone. […] Activity of test compound was expressed as percent inhibition relative to the control and was the mean of each group of treated animals.

For `CC12CCC3C(CC[C@H]4NC(=O)CCC34C)C1CC[C@@H]2OC1CC1` (stereo partly drawn) [MDL 103,432, 17β-Cyclopropyloxy-4-aza-5α-androstan-3-one], the inhibition at 30 mg/kg (30 mg/kg) was 88% and the inhibition at 100 mg/kg (100 mg/kg) was 96%.
